The text below walks through data of patent US11207319B2, “Method for the treatment of bladder cancer” (Cipla Limited, priority 2015, dated 2021).

One test concerns BXF 1036L. In words: In vitro combination study, 3D clonogenic assay, 5x5 matrix. The test is classed as cell-based. The conditions noted are these: Homo sapiens, monotherapy controls of 5x5 matrix, soft agar, read-out: IC50, colony formation, single agent. Here is the method: (§1) Summary: Terconazole was tested alone and in combination with cisplatin in order to investigate the ability to inhibit tumor cell growth of bladder cancer cell lines in a 5×5 matrix combination format. Efficacy of the combinations was assessed by measuring anchorage-independent growth and in vitro tumor colony formation using a 3D clonogenic assay in cell lines BXF 1036L, BXF 1218L, and BXF T24.
(§2) The objective of this study was to assess anti-tumor efficacy of CIPDE033 and CIPDE034 in combination with cisplatin in a 5×5 matrix combination format against various bladder cancer cell lines. Efficacy of the combinations was assessed by measuring anchorage-independent growth and in vitro tumor colony formation using a 3D clonogenic assay in cell lines BXF 1036L, BXF 1218L, and BXF T24. […]
(§3) Cultivation of Cell Lines: Cell lines were routinely passaged once or twice weekly and maintained in culture for up to 20 passages. […] The percentage of viable cells was determined in a Neubauer-hemocytometer using trypan blue exclusion.
(§4) 3D Clonogenic Assay Procedure: The clonogenic assay was carried out in a 96 well plate format using ultra low attachment plates. […] Cultures were incubated at 37° C. and 7.5% CO2 in a humidified atmosphere for 8 to 13 days and monitored closely for colony growth using an inverted microscope. […]

Test [1] concerns BXF T24. Described as above. The format is cell-based. The conditions noted are these: Homo sapiens; monotherapy controls of 5x5 matrix, BXF T24, soft agar; read-out: IC50, colony formation, single agent. On the procedure: as §1, §2, §3, §4
The test system of test [2] is BXF T24. In words: In vitro 3D clonogenic assay (colony formation in semi-solid medium). The test is classed as cell-based, human. The conditions noted are these: read-out: Absolute IC50 values. On the procedure:
(§5) In the present study, terconazole and cisplatin were evaluated for their ability to inhibit anchorage independent growth and ex vivo colony formation of tumor cells in semi-solid medium. The compounds were tested against 5 human tumor cell lines of bladder cancer. Test concentrations ranged, from 0.0316 μM to 316.2 μM (terconazole), or from 0.00316 μM to 100 μM (cisplatin).
(§6) Terconazole and the reference compound cisplatin were investigated for anticancer activity ex vivo in five human tumor cell lines of bladder cancer. Tests were carried out using a 3D clonogenic assay in 96-well format with image based read-out. The aim of the study was to investigate antitumor potency and tumor type selectivity of the compound.
Clonogenic Assay Procedure: The clonogenic assay was carried out in a 96 well plate format using ultra low attachment plates. […] Cultures were incubated at 37° C. and 7.5% CO2 in a humidified atmosphere for 8 to 13 days and monitored closely for colony growth using an inverted microscope. […]

The next test relates to T-24. As to the kind of experiment: In vitro anticancer activity, bladder carcinoma efficacy models (cytotoxicity/clonogenic). The test is classed as cell-based, human. The conditions noted are these: T-24, varied concentrations. Here is the method:
(§7) Human bladder cancer cell lines HTB-5, HT-1376 and T-24 were purchased from American Type Culture Collection, USA. Cell lines HTB-5 and HT1376 were routinely cultured in Eagle's Minimum Essential Medium with 10% fetal bovine serum and T-24 in McCoy's 5A medium with 10% fetal bovine serum. All cell lines were maintained at 37° C. in a humidified atmosphere containing 5% CO2.
(§8) In vitro cytotoxicity assay: Cells were plated in 96-well cell culture plates (4×10^3 cells/well) and were treated with drugs at various concentrations. Treated cells were maintained at 37° C. in 5% CO2 for 48 and 72 hrs. After the incubation antiproliferative activity of test compounds was measured using ProMega Cell Titer aqueous one solution cell proliferation assay kit, viz. CellTiter 96® AQueous One Solution Reagent. Cells were incubated for 1-4 hours at 37° C., 5% CO2 incubator and absorbance was measured at 490 nm using a plate reader. IC50 values were determined by plotting compound concentration versus cell viability.
(§9) Clonogenic assay: bladder cancer cell lines viz HTB-5, HT-1376 and T-24 cells were plated at different densities i.e. 300 cells/well and 400 cells/well respectively in 3 ml volume per well into six-well plates and incubated overnight at 37° C. in a 5% CO2 incubator. […] Medium with drug was then replaced with medium without drug and plates were further incubated till visible colonies appeared (approximately for 12-14 days). Cells were then fixed with methanol:glacial acetic acid (2:1) and stained with 0.5% crystal violet. After staining for 2-3 min, plates were rinsed twice with D/W, dried and images were captured.

A further test has as its system HT1376. Described as above. The conditions noted are these: HT1376, varied concentrations. The format is cell-based, human. On the procedure: as §7, §8, §9
The test system of a further test is HTB-5. The test is described as above. The conditions noted are these: HTB-5, varied concentrations. The test is classed as cell-based, human. On the procedure:
as §7, §8, §9

In test [3] the test system is BXF 1352. As to the kind of experiment: In vitro 2D assay, CellTiter-Blue Cell Viability Assay. The test is classed as cell-based. The conditions noted are these: Homo sapiens, BXF 1352, 96 h, read-out: Absolute IC50 values. Here is the method:
(§10) The in-vitro anti-tumor activity of terconazole was assessed in five selected human bladder cancer cell lines. The test compounds were applied at 9 concentrations in half-log increments. As a reference compound cisplatin was tested in parallel. Cells were treated for 96 h with the test compounds. Anti-tumor activity was assessed by using the CellTiter-Blue® Cell Viability Assay. Potency is expressed as absolute IC50 and relative IC50 values, calculated by non-linear regression analysis.
(§11) Tumor Cell Lines: In the present study the human bladder cancer cell lines BXF 1036, BXF 1218, BXF 1352, 5637 and T24 were used. BXF 1036, BXF 1218 and BXF 1352 were established at Oncotest from the corresponding human patient derived xenograft. T24 was purchased from ATCC (Rockville, Md., USA) and 5637 was from DSMZ (Braunschweig, Germany). Authenticity of cell lines was confirmed at the DSMZ by STR (short tandem repeat) analysis, a PCR based DNA-fingerprinting methodology. Cell lines were routinely passaged once or twice weekly and maintained in culture for up to 20 passages. All cells were grown at 37° C. in a humidified atmosphere with 5% CO2 in RPMI 1640 medium (25 mM HEPES, with L-glutamine, #FG1385, Biochrom, Berlin, Germany) supplemented with 10% (v/v) fetal calf serum (Sigma, Taufkirchen, Germany) and 0.1 mg/mL gentamicin (Life Technologies, Karlsruhe, Germany).
(§12) Cell Proliferation Assay: The CellTiter-Blue® Cell Viability Assay (#G8081, Promega) was used according to manufacturer's instructions. Briefly, cells were harvested from exponential phase cultures, […] on the cell line's growth rate. After a 24 h recovery period to allow the cells to resume exponential growth, test compounds were added. Compounds were applied at 9 concentrations in half-log increments in duplicate and treatment continued for 96 h. After 96 h treatment of cells, 20 μL/well CellTiter-Blue® reagent was added.
(§13) Following an incubation period of up to four hours, fluorescence (FU) was measured by using the Enspire Multimode Plate Reader (excitation k=531 nm, emission k=615 nm). For calculations, the mean values of duplicate/sixfold (untreated control) data were used. Sigmoidal concentration-response curves were fitted to the data points (T/C values) obtained for each cell line using 4 parameter non-linear curve fit (Oncotest Warehouse Software).
In general terms: Resazurin is reduced to fluorescent resorufin, in cell work by metabolically active cells.

For test [4], the system named is BXF 5637. The description is as above. The format is cell-based. The conditions noted are these: Homo sapiens, BXF 5637, 96 h, read-out: Absolute IC50 values. Here is the method:
as §10, §11, §12, §13

Test [5] relates to BXF T24. The test is described as above. The format is cell-based. The conditions noted are these: Homo sapiens, BXF T24, 96 h, read-out: Absolute IC50 values. Here is the method: as §10, §11, §12, §13
For test [6], the system named is BXF 1036. Described as above. The test is classed as cell-based. The conditions noted are these: Homo sapiens, BXF 1036, 96 h, read-out: Absolute IC50 values. Here is the method: as §10, §11, §12, §13
For test [7], the system named is BXF 1218. The description is as above. The format is cell-based. The conditions noted are these: Homo sapiens, BXF 1218, 96 h, read-out: Absolute IC50 values. Here is the method: as §10, §11, §12, §13
Test [8] has as its system five selected human bladder cancer cell lines. As to the kind of experiment: In vitro 2D assay, CellTiter-Blue Cell Viability Assay, mean over panel. The format is cell-based. The conditions noted are these: 96 h, read-out: Geometric Mean Absolute IC50 values. On the procedure: as §10
Tumor Cell Lines: In the present study the human bladder cancer cell lines BXF 1036, BXF 1218, BXF 1352, 5637 and T24 were used. BXF 1036, BXF 1218 and BXF 1352 were established at Oncotest from the corresponding human patient derived xenograft. T24 was purchased from ATCC (Rockville, Md., USA) and 5637 was from DSMZ (Braunschweig, Germany). Authenticity of cell lines was confirmed at the DSMZ by STR (short tandem repeat) analysis, a PCR based DNA-fingerprinting methodology. Cell lines were routinely passaged once or twice weekly and maintained in culture for up to 20 passages. […]
Following an incubation period of up to four hours, fluorescence (FU) was measured by using the Enspire Multimode Plate Reader (excitation k=531 nm, emission k=615 nm). […]

Test [9] has as its system 5 human tumor cell lines of bladder cancer. In words: In vitro 3D clonogenic assay, panel summary. The conditions noted are these: for IC50: Homo sapiens. The format is cell-based. Here is the method:
as §5, §6
(§14) Clonogenic Assay Procedure: The clonogenic assay was carried out in a 96 well plate format using ultra low attachment plates. For each test, cells were prepared as described above and assay plates were prepared as follows: each test well contained a layer of semi-solid medium with tumor cells (50 and a second layer of medium supernatant with or without test compound (100 The cell layer consisted of 2·10^3 to 3·10^3 tumor cells per well, which were seeded in 50 μL/well cell culture medium (IMDM, supplemented with 20% (v/v) fetal calf serum, 0.01% (w/v) gentamicin, and 0.4% (w/v) agar. After 24 hours the test compounds were added after serial dilution in cell culture medium, and left on the cells for the duration of the experiment (continuous exposure, 100 μl drug overlay). Every plate included six untreated control wells and drug-treated groups in duplicate at 9 concentrations. Cultures were incubated at 37° C. and 7.5% CO2 in a humidified atmosphere for 8 to 13 days and monitored closely for colony growth using an inverted microscope. Within this period, ex vivo tumor growth led to the formation of colonies with a diameter of >50 μm. At the time of maximum colony formation, counts were performed with an automatic image analysis system (Bioreader 5000-Wa Biosys GmbH). 48 hours prior to evaluation, vital colonies were stained with a sterile aqueous solution of 2-(4-iodophenyl)-3-(4-nitrophenyl)-5-phenyltetrazolium chloride (1 mg/ml, 100 μl/well)

The subject of test [10] is BXF 1352. As to the kind of experiment: In vitro 3D clonogenic assay (colony formation in semi-solid medium). The conditions noted are these: Homo sapiens, read-out: Absolute IC50 values. The test is classed as cell-based. Here is the method:
as §5, §6, §14

Test [11] has as its system BXF 5637. The description is as above. The format is cell-based. The conditions noted are these: Homo sapiens, read-out: Absolute IC50 values. On the procedure: as §5, §6, §14
Test [12] relates to BXF 1036. The description is as above. The test is classed as cell-based. The conditions noted are these: Homo sapiens, read-out: Absolute IC50 values. Here is the method:
as §5, §6, §14

The test system of test [13] is BXF 1218. The test is described as above. The test is classed as cell-based. The conditions noted are these: Homo sapiens, read-out: Absolute IC50 values. Here is the method:
as §5, §6, §14

Another test concerns the target T1, rat spleen HO-1 (Rattus norvegicus, UniProt P06762).
T1 construct: host or cells: rat spleen
T1 sequence (P06762 1-289): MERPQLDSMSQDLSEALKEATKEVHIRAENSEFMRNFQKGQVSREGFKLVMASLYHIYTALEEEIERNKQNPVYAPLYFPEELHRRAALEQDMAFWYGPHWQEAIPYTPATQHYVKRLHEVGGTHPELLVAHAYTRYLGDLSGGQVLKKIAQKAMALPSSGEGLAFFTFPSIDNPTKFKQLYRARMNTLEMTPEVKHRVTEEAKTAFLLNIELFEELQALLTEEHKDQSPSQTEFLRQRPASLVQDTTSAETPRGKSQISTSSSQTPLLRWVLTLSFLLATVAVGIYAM
The conditions noted are these: reported in literature; read-out: IC50, inhibition of rat spleen HO-1 activity; cited from earlier work.

Like-named read-outs stand apart in the source and are kept apart here.

As usually defined, the IC50 is the concentration needed to halve the response being measured. For the compound `CC(C)N1CCN(c2ccc(OC[C@@H]3CO[C@@](Cn4cncn4)(c4ccc(Cl)cc4Cl)O3)cc2)CC1` (racemic) [Terconazole], the IC50 with BXF 1036L was 27.1 µM; in the test with BXF T24 [1], 59.8 µM; in the test with BXF T24 [2] (Homo sapiens), 33.1 µM; in the test on BXF 1352 [3], 45.9 µM; in the test with BXF 5637 [4], 38.4 µM; with BXF T24 [5], 41.5 µM. Moreover, the IC50 in the test on BXF 1036 [6] was 29.4 µM; in the test on BXF 1218 [7] it was 46.9 µM; in [8], 39.9 µM; in [9] (read-out: mean relative IC50 value), 33.5 µM; in test [9] (3D clonogenic assay, colony formation, read-out: IC50 values, range over all bladder cancer cell lines tested), 29.6 to 40.1 µM; in [9] (3D clonogenic assay, five cell lines, read-out: Geometric Mean Absolute IC50 values) it was 33.9 µM. Also, the 50% inhibitory concentration (IC50) with BXF 1352 [10] was 36.6 µM; in the test with BXF 5637 [11] it was 30.8 µM; in the test with BXF 1036 [12], 29.7 µM; in the test with BXF 1218 [13] it was 40.3 µM; at rat spleen HO-1, 0.41 ± 0.01 µM. For the same compound, the “anticancer activity in vitro” value with T-24, in the test with HT1376 and in the test on HTB-5 was “significant anticancer activity” in each case. The “Bottom plateaus of the concentration-effect curves” value in test [9] (3D clonogenic assay, responding tumor models) is listed as 0%.

On to `N.N.[Cl][Pt][Cl]` [Cisplatin, cisplatin], for which the IC50 with BXF T24 [2] turned out to be 53 µM.
